Patent US6737383B1, “Herbicidal oxadiazolidines” (priority 1999, dated 2004)

Key:
blackgrass = experiment: Test E blackgrass; format: in vivo, Alopecurus myosuroides; conditions: Preemergence
wild oat [1] = experiment: Test E wild oat; format: in vivo, Avena fatua; conditions: Preemergence
crabgrass = experiment: Test B pre/postemergence crabgrass; format: in vivo, Digitaria sanguinalis
Procedure, shortened: (§1)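 Response is a visual 0-to-10 score relative to untreated plants, where 0 means no effect and 10 means complete control, taken twelve to sixteen days after application. Treatments went onto soil at planting and onto foliage of 1- to 4-leaf plants, using a surfactant-containing non-phytotoxic solvent.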

bermuda-grass = experiment: Test D bermudagrass; format: in vivo, Cynodon dactylon; conditions: Preemergence, 0 to 100 scale
Procedure, shortened: (§2)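 Herbicide screen in the greenhouse. A non-phytotoxic solvent mixture with surfactant carried the test chemical; in pre-emergence tests it went onto the soil of pots seeded no more than a day earlier. Injury was scored by eye 14 to 21 days after application, 0 to 100.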

itchgrass = experiment: Test D itchgrass; format: in vivo, Rottboellia exaltata; conditions: Preemergence, 0 to 100 scale
Procedure, shortened: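 Scoring used a 0–100 visual injury scale, with 0 meaning no effect and 100 complete control, assessed 14–21 days after application alongside untreated pots. Preemergence treatments went onto sandy loam surfaces of separately potted seeds within a day of sowing.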

smallflower flatsedge = experiment: Test B flood test smallflower flatsedge; format: in vivo, Cyperus difformis
Procedure, shortened: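 Flood test on plants grown to the 2-leaf stage; treated plants kept in greenhouse twelve to sixteen days, then visually rated against controls on a 0 (no effect) to 10 (complete control) scale.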

winter barley = experiment: Test E winter barley; format: in vivo, Hordeum vulgare; conditions: Preemergence
Italian ryegrass = experiment: Test E Italian ryegrass; format: in vivo, Lolium multiflorum; conditions: Preemergence
winter wheat [2] = experiment: Test E winter wheat; format: in vivo, Triticum aestivum; conditions: Postemergence
Procedure, shortened: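 Visual evaluation versus untreated controls after about 21 to 28 days in the greenhouse. Compound was in a surfactant-containing non-phytotoxic solvent; postemergence plants were treated at the 1- to 4-leaf stage, grown in a 60:40 sandy loam and potting mix blend.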

winter wheat [3] = experiment: Test E winter wheat; format: in vivo, Triticum aestivum; conditions: Preemergence
green foxtail = experiment: Test E green foxtail; format: in vivo, Setaria viridis; conditions: Preemergence
soybean = experiment: Test B pre/postemergence soybean; format: in vivo, Glycine max
Procedure, shortened: as §1

wheat = experiment: Test B pre/postemergence wheat; format: in vivo, Triticum aestivum; conditions: for Plant response rating, Wheat: Rate 250 g/ha
Procedure, shortened: as §1

wild oat [4] = experiment: Test B pre/postemergence wild oat; format: in vivo, Avena fatua; conditions: for Plant response rating, Wild oats: Rate 250 g/ha
Procedure, shortened: as §1

Johnson grass = experiment: Test D Johnson grass; format: in vivo, Sorghum halepense; conditions: Preemergence, 0 to 100 scale
Procedure, shortened: as §2

[5] = Rate 62 g/ha, 0 to 100 scale, 0 no effect, 100 complete control
[6] = Rate 125 g/ha, 0 to 100 scale (0 no effect, 100 complete control)
[7] = Postemergence, Rate 125 g/ha, scale of 0 to 10 where 0 is no effect and 10 is complete control
[8] = Preemergence, Rate 62 g/ha, scale 0 to 10 (0 no effect, 10 complete control)
[9] = Preemergence, Rate 125 g/ha, scale 0 to 10 (0 no effect, 10 complete control)
[10] = Preemergence, Rate 250 g/ha, scale of 0 to 10 where 0 is no effect and 10 is complete control
[11] = Preemergence, Rate 500 g/ha, scale 0 to 10 (0 no effect, 10 complete control)
[12] = Rate 62 g/ha, Postemergence, scale of 0 to 10 where 0 is no effect and 10 is complete control
[13] = Rate 500 g/ha, Postemergence, scale 0 to 10, 0 no effect, 10 complete control
[14] = Rate 64 g/ha, 0 no injury, 100 complete control
[15] = Rate 125 g/ha, 0 no injury, 100 complete control
[16] = Preemergence, Rate 125 g/ha, 0 is no effect, 10 is complete control
[17] = Preemergence, scale of 0 to 10 where 0 is no effect and 10 is complete control
[18] = Postemergence, scale 0 to 10, 0 is no effect, 10 is complete control

## CCn1c(=O)on(C(=O)N(c2ccccc2)C(C)C)c1=O [Compound 117]
blackgrass; [5]
  Plant response rating, Blackgrass: 50
blackgrass; [6]
  Plant response rating, Blackgrass: 50
blackgrass; Rate 250 g/ha, 0 to 100 scale
  Plant response rating, Blackgrass: 60
Wild oat [1]; [5]
  Plant response rating, Wild oat: 20
Wild oat [1]; [6]
  Plant response rating, Wild oat: 20
crabgrass; [7]
  Crabgrass plant response rating: 9
crabgrass; Postemergence, Rate 250 g/ha, scale 0 to 10, 0 no effect, 10 complete control
  Crabgrass plant response rating: 9
crabgrass; [8]
  Crabgrass plant response rating: 9
crabgrass; [9]
  Plant response rating, Crabgrass: 10
crabgrass; [10]
  Plant response rating, Crabgrass: 10
crabgrass; [11]
  Crabgrass plant response rating: 10
crabgrass; [12]
  Crabgrass plant response rating: 9
crabgrass; [13]
  Crabgrass plant response rating: 9
bermuda-grass; [14]
  Plant response rating, Bermudagrass: 98
bermuda-grass; [15]
  Plant response rating, Bermudagrass: 100
bermuda-grass; Rate 500 g/ha
  Plant response rating, Bermudagrass: 100
itchgrass; [14]
  Plant response rating, Itchgrass: 40
itchgrass; [15]
  Plant response rating, Itchgrass: 75
itchgrass; Rate 500 g/ha
  Plant response rating, Itchgrass: 100
Smallflower flatsedge; Postemergence (flood test species), Rate 125 g/ha, scale of 0 to 10 where 0 is no effect and 10 is complete control
  S. Flatsedge plant response rating: 0
Smallflower flatsedge; Pre-emergence, Rate 1000 g/ha, scale 0 to 10 (0 no effect, 10 complete control)
  S. Flatsedge plant response rating: 0
Smallflower flatsedge; Rate 62 g/ha, Postemergence section, flood test species, scale of 0 to 10 where 0 is no effect and 10 is complete control
  S. Flatsedge plant response rating: 0
Smallflower flatsedge; Rate 250 g/ha, Postemergence (flood test), scale 0 to 10, 0 is no effect, 10 is complete control
  Plant response rating, S. Flatsedge: 0
Smallflower flatsedge; Rate 250 g/ha, headed Pre-emergence (flood test species), scale 0 to 10 (0 no effect, 10 complete control)
  S. Flatsedge plant response rating: 0
Smallflower flatsedge; Rate 500 g/ha, headed Pre-emergence (flood test species), scale 0 to 10 (0 no effect, 10 complete control)
  Plant response rating, S. Flatsedge: 0
Smallflower flatsedge; Rate 500 g/ha, listed under Postemergence (flood test species), scale 0 to 10, 0 no effect, 10 complete control
  S. Flatsedge plant response rating: 0
Smallflower flatsedge; Rate 2000 g/ha, Pre-emergence (as headed), scale 0 to 10
  S. Flatsedge plant response rating: 4
Winter barley; [5]
  Plant response rating, Barley (winter): 25
Winter barley; [6]
  Plant response rating, Barley (winter): 20
Winter barley; Rate 250 g/ha, 0 to 100 scale
  Plant response rating, Barley (winter): 30
Italian ryegrass; [5]
  Plant response rating, I. Ryegrass: 50
Italian ryegrass; [6]
  Plant response rating, I. Ryegrass: 45
Italian ryegrass; Rate 250 g/ha, 0 to 100 scale
  Plant response rating, I. Ryegrass: 85
Winter wheat [2]; Rate 62 g/ha, 0 to 100 scale
  Plant response rating, Wheat (winter): 0
Winter wheat [2]; Rate 125 g/ha, 0 to 100 scale
  Plant response rating, Wheat (winter): 10
Winter wheat [2]; Rate 250 g/ha, 0 to 100 scale (0 no effect, 100 complete control)
  Plant response rating, Wheat (winter): 25
Winter wheat [3]; [5]
  Plant response rating, Wheat (winter): 30
Winter wheat [3]; [6]
  Plant response rating, Wheat (winter): 60
Winter wheat [3]; Rate 250 g/ha, 0 to 100 scale
  Plant response rating, Wheat (winter): 90
Green foxtail; [5]
  Plant response rating, Green foxtail: 50
Green foxtail; [6]
  Plant response rating, Green foxtail: 60
Green foxtail; Rate 250 g/ha, 0 to 100 scale
  Plant response rating, Green foxtail: 80
soybean; [7]
  Soybean plant response rating: 5
soybean; [8]
  Soybean plant response rating: 0
soybean; [9]
  Plant response rating, Soybean: 8
soybean; [10]
  Plant response rating, Soybean: 8
soybean; [11]
  Soybean plant response rating: 9
soybean; [12]
  Soybean plant response rating: 2
soybean; Rate 250 g/ha, Postemergence, scale 0 to 10, 0 is no effect, 10 is complete control
  Plant response rating, Soybean: 5
soybean; [13]
  Soybean plant response rating: 7
wheat; [7]
  Wheat plant response rating: 6
wheat; [8]
  Wheat plant response rating: 2
wheat; [16]
  Wheat plant response rating (0 to 10 scale): 4
wheat; [17]
  Plant response rating, Wheat: 7
wheat; [11]
  Wheat plant response rating: 8
wheat; [12]
  Wheat plant response rating: 2
wheat; [18]
  Plant response rating, Wheat: 6
wheat; [13]
  Wheat plant response rating: 8
Wild oat [4]; [7]
  Wild oats plant response rating: 3
Wild oat [4]; [8]
  Wild oats plant response rating: 3
Wild oat [4]; [16]
  Wild oats plant response rating (0 to 10 scale): 6
Wild oat [4]; [17]
  Plant response rating, Wild oats: 10
Wild oat [4]; [11]
  Wild oats plant response rating: 10
Wild oat [4]; [12]
  Wild oats plant response rating: 0
Wild oat [4]; [18]
  Plant response rating, Wild oats: 4
Wild oat [4]; [13]
  Wild oats plant response rating: 8
Johnson grass; [14]
  Plant response rating Johnsongrass: 90
Johnson grass; [15]
  Plant response rating Johnsongrass: 90
Johnson grass; Rate 500 g/ha
  Plant response rating Johnsongrass: 100
